Biological target: T1, PLK1 enzyme KD (Kinase Domain) 2-345 (Homo sapiens, UniProt P53350)
T1 construct: PLK1 kinase domain (corresponding to residues 2-345) was PCR amplified; His tag (N, cleaved yes); TEV cleavage site (N, cleaved yes); made in house; host or cells: High5 insect cells (baculovirus generated in Sf9)
Test: Biochemical assay for inhibitors of PLK-1 kinase activity (trans-phosphorylation, Dowex resin, 33P-ATP)
Details: PLK1 KD 2-345 3 nM, 40 microM ATP, 85 microM alpha-casein, 60 minutes at room temperature
Description: The inhibitory activity of putative kinase inhibitors and the potency of selected compounds were determined using a trans-phosphorylation assay.
Three cycles of mixing are done immediately after the addition of the resin.

T1 sequence (P53350 2-345): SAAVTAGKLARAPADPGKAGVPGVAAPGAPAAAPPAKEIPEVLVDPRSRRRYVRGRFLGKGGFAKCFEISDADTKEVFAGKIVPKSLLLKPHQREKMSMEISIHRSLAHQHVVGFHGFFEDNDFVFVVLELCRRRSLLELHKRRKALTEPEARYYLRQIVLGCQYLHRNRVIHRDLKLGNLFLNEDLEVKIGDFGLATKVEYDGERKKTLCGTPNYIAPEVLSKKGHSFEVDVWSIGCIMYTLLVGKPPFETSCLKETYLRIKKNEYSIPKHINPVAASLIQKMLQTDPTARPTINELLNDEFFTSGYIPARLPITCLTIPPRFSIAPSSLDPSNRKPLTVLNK

IC50: 110 nM
Structure (SMILES): O=C1NCCc2[nH]c(-c3ccnc(Nc4ccccc4)n3)cc21 [Reference Compound]

From patent US8426417B2, “Substituted pyrrolo-pyrimidine derivatives, process for their preparation and their use as kinase inhibitors” (priority 2007, dated 2013)
